Experimental data reported in patent US20220411448A1, “CHROMENE-4-ONE DERIVATIVES AS BRAIN-DERIVED NEUROTROPHIC FACTOR (BDNF) MIMETICS” (FLORATEK PHARMA AG, priority 2019, published 2022).

Assays:
[1] = tested on: organotypic hippocampal brain slices with IAA lesion; experiment: Organotypic brain slices, iodoacetic acid injury: cell survival (MTT); format: cell-based, mouse; conditions: SND118 10 and 30 μM; SND124 30 μM; 7,8 DHF 10 μm; IAA 250 μM for 110 min
Procedure: (§1) Preparation of the organotypic brain slices were performed by decapitation of the P9/P10 mouse pups, removing skin and skull and immersing brains in slicing medium (Opti-MEM 1, […]). Brains were hemisected and hippocampi were isolated. Hippocampi were placed on the cutting disc of a McIlwain Tissue Chopper. […] hippocampal slices were chopped transversely. A number of 4 slices per hippocampus were placed on porous (0.4 μM) transparent membrane inserts (Millipore) and incubated for 1 h on ice in HBSS containing 10 mM glucose. Afterwards inserts were transferred to fresh 24-well plates containing 250-300 μl culture medium (50% MEM/EBSS, 25% horse serum, 25% CMF-HBSS, 25 mM glucose, 0.5% pen/strep). Slices were maintained at 37° C. and 5% CO2.
(§2) On DV15, brain slices were pretreated with SND derivatives test compounds and the reference 7,8DHF at various concentrations (between […]) for 30 min, followed by the addition of iodoacetic acid (IAA) at 250 μM for 110 min, when cell survival, MMP and toxicity were measured.
Cell survival was measured by the MTT assay. For the determination of mitochondrial membrane potential, treated organotypic brain slices were loaded with the mitochondrial fluorescent dye, tetramethylrhodamine methyl ester (TMRM) at a final concentration of 100 nM in PBS and incubated for 45 min at 37° C. The TMRM containing solution was aspirated and slices were transferred into new well plates containing the appropriate amount of PBS. Fluorescence was measured with a plate-reader (Cytation 5) using wavelengths of excitation and emission of 548 and 574 nm, respectively (area scan). Values were calculated as percent of control values (vehicle control). Toxicity of the treatment was measured by LDH. No toxicity was observed.

TrkB receptor = experiment: Activation of TrkB receptor: phosphorylation in cortical neurons (WES capillary immunoassay); format: cell-based, mouse
Procedure: On the day of preparation (DIV1) cortical neurons were seeded on poly-D-lysine pre-coated 6-well plates at a density of 1.25*10^6 cells per well and cultured at 37° C.; 95% humidity and 5% CO2 until […] with a half medium exchange on DIV4-6. On DIV10 cells are treated with test item TI (SND118) and control Rh (7,8DHF) at different concentrations for 15 min. The experiment was carried out with n=6 technical replicates per condition, vehicle treated cells served as control. Cells were lysed in 150 μL cold RIPA buffer [50 mM Tris pH 7.4, 1% Nonidet P40, 0.25% Na-deoxy-cholate, 150 mM NaCl, 1 mM EDTA supplemented with freshly added 1 μM NaF, 0.2 mM Na-ortho-vanadate, 80 μM Glycerophosphate, protease (Calbiochem) and phosphatase (Sigma) inhibitor cocktail.
Phosphorylation of the TrkB receptor was detected using the following rabbit anti-Tyr specific antibodies: anti-TrkB Y515, Y706/707 and Y816 and compared with total TrkB detected with anti-TrkB antibody (Abcam). Antibody dilutions and protein amounts were optimized for signal specificity.
Automated separation and immunostaining of total and phospho TrkB was carried out using a capillary-based immunoassay, WES™ (Proteinsimple®). Samples were applied to a 25 capillary cartridge with a 2 to 440 kDa matrix, at an optimized total protein concentration. Sample loading, separation, immunoprobing, washing, detection and quantitative data analysis were performed automatically by WES™ Western system (Compass software V 4.0.0). The areas under the curve were used for the analysis and the phosphorylated versus vehicle or total TrkB signal ratio was calculated and used for statistics.

[2] = tested on: cortical neurons treated with glutamate; experiment: Neuron protection from glutamate injury: mitochondrial membrane potential (rhodamine 123); format: cell-based, rat
Procedure: (§3) Cortices were harvested from E19 rat embryos and dissociated enzymatically and mechanically. Dissociated cells were plated in poly-D-lysine coated imaging plates (384 wells), in 70 μL of neuronal growth medium (Neurocult Neuronal Basal medium+SM1 neuronal supplements+L-glutamine+HEPES). Cells were incubated at 37° C., 5% CO2 and half of the medium was changed twice per week.
For mitochondrial membrane potential measurement (MMP) neurons were cultured 10 to 14 days in vitro, the growth medium was discarded and wells were washed with 50 μL of extracellular saline. Saline was removed and replaced by 25 μL of staining solution (rhodamine 123 in a saline solution containing 1.5 mM Calcium, pyruvate and verapamil). The cells were incubated 30 min at 37° C./5% CO2. 5 μL of a staining solution with or without the test substances at 6× concentrated was added in the wells. […]
Glutamate was prepared 6× concentrated (6 μL on top of the 30 μL) in saline or saline+test compounds 1× concentrated depending on the conditions. […] Basal MMP levels were measured for 1 minute before automated addition of the compounds or controls while recording. MMP signals were further recorded for 30 minutes to 1 hour. […]
Rhodamine 123 is a cationic fluorescent dye that is used to specifically label respiring mitochondria. […] Loss of potential will result in loss of the dye and, therefore, the fluorescence intensity.

MAO-A = biological target: T1, MAO-A (Homo sapiens, UniProt P21397); experiment: In vitro inhibition of monoamine oxidase type A (BioVision MAO-A inhibitor screening kit); format: biochemical; conditions: read-out: IC50 in vitro inhibition of MOA-A enzyme
T1 construct: purchased BioVision K796
T1 sequence (P21397 1-527): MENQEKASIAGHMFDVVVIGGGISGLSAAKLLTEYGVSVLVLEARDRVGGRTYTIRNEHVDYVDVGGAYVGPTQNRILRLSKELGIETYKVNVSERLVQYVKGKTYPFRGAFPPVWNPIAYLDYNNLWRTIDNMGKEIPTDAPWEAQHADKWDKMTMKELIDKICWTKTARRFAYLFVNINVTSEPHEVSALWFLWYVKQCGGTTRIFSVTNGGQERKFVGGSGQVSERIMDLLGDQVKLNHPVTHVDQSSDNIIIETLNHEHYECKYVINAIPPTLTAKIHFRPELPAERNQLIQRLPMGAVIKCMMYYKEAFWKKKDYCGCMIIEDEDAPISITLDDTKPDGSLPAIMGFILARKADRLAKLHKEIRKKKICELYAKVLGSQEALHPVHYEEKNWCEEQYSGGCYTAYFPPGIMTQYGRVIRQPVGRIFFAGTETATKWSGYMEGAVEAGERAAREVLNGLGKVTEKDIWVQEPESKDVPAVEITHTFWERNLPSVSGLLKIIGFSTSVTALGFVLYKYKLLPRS
Procedure: BioVision's MAO-A inhibitor screening kit (BioVision Cat no. K796) was used to assess inhibitory effects of the test items (TIs) on MAO-A in a fluorescent assay.
The assay was carried out according to the provided protocol: TIs were diluted to 10× with MAO-A Assay Buffer before use. 10 μl of test inhibitor (S), working solution of Inhibitor Control (IC; Clorgyline, 1 μM final in the well) and MAO-A Assay Buffer (Enzyme Control; EC) were added into assigned wells. 50 μl of diluted MAO-A Enzyme Solution was added to each well and incubated for 10 min at RT. To check the possible inhibitory effect of TIs on Developer, one well with TI was prepared parallel and incubated with 50 μl of a H2O2 mix instead of the MAO-A Enzyme Solution.
The reaction was started by adding 40 μl of the prepared substrate mix. Measurement of the fluorescence (Ex/Em=535/587 nm) was done kinetically at 25° C. for 10-30 min. Two time points (t1 and t2) in the linear range of the plot were chosen for further calculations (2 min and 6 min). The slope for all Sample Compounds [S], Enzyme Control [EC], Vehicle Control [VC] and Background Control [BC] were calculated by dividing the net ARFU (RFU2-RFU1) values by the time Δt (t2−t1). The slope obtained for the Background Control reaction was subtracted from the [S], [EC] and [VC] values. […]

[3] = tested on: organotypic hippocampal brain slices with IAA lesion; experiment: Organotypic brain slices, iodoacetic acid injury: mitochondrial membrane potential (TMRM); format: cell-based, mouse; conditions: SND118 10 and 30 μM; SND124 30 μM; IAA 250 μM for 110 min
Procedure: as §1, §2
Cell survival was measured by the MTT assay. […] Fluorescence was measured with a plate-reader (Cytation 5) using wavelengths of excitation and emission of 548 and 574 nm, respectively (area scan). Values were calculated as percent of control values (vehicle control). Toxicity of the treatment was measured by LDH. […]

[4] = tested on: cortical neurons treated with glutamate; experiment: Neuron protection from glutamate injury: intracellular calcium measurement; format: cell-based, rat
Procedure: as §3
For Calcium measurement, the cells were cultured for 10 to 14 days in vitro, the growth medium was discarded and replaced by 25 μL of a calcium probe in a saline solution (containing 1.5 mM Calcium) for 30 min at 37° C./5% CO2. 5 μL of calcium probe in a saline solution with or without the test substances at 6× concentrated was added in the wells for the pre-treatment step. The wells were further incubated 30 min at 37° C./5% CO2
For calcium measurement, at the end of the pre-treatment, glutamate was prepared at 6× concentrated (6 μL on top of the 30 μL). The final vehicle concentration in all conditions was adjusted. Basal calcium levels was measured for 1 minute before automated addition of the compounds or controls while recording. Intracellular calcium signals was further recorded for 5 to 10 minutes at a sampling rate of around 1 point per second. Each experimental condition was tested in quadruplicate wells.

[5] = tested on: primary cultures of cerebral cortical astrocytes; conditions: glutamate 200 μM, positive control; cited from earlier work

Compound: O=c1cc(-c2ccccc2)oc2c(O)c(O)ccc12 [7,8DHF, 7,8-dihydroxyflavone, reference compound]
- cell survival upon IAA lesion (MTT) [1]: no effect
- phosphorylation of the TrkB receptor at sites Tyr 515 and Tyr 816 (TrkB receptor; 1 and 2 μM): induced a lower phosphorylation, which did not reach statistical significance
- phosphorylation of TrkB at Tyr residue 706/707 versus the vehicle (TrkB receptor; SND118 2 μM): neither the derivative nor the 7,8DHF reached statistical significance

Compound: C[C@]12N[C@H](Cc3ccccc31)c1ccccc12 [MK801, [(+)-5-methyl-10,11-dihydroxy-5H-dibenzo(a,d)cyclohepten-5,10-imine], reference compound]
- mitochondria potential increased by glutamate (rhodamine 123) ([2]; MK801 10 μM, control compound): restored

Compound: CCNC(=O)Oc1ccc2c(=O)cc(-c3ccc(CCCC[P+](c4ccccc4)(c4ccccc4)c4ccccc4)cc3)oc2c1OC(=O)NCC.[Br-] [SND124, 4-[4-[7,8-Bis(ethylcarbamoyloxy)-4-oxo-chromen-2-yl]phenyl]-butyltriphenylphosphonium bromide]
- IC50 (MAO-A): 20 µM
- mitochondria function (MMP, TMRM) after IAA lesion [3]: rescued mitochondria function
- cell survival upon IAA lesion (MTT) [1]: statistically increase cell survival

Compound: COc1c(O)ccc2c(=O)cc(-c3ccc(CCCC[P+](c4ccccc4)(c4ccccc4)c4ccccc4)cc3)oc12.[Br-] [SND135, (4-(4-(7-hydroxy-8-methoxy-4-oxo-4H-chromen-2-yl)phenyl)butyl)triphenylphosphonium bromide]
- mitochondria potential induced by glutamate (rhodamine 123) ([2]; SND135 between 3 and 30 μM, glutamate between 10 and 100 μM): decreases mitochondria potential
- calcium release induced by glutamate ([4]; SND135 30 μM, glutamate 30 μM): decreased
- calcium release induced by glutamate (maximum peak of calcium kinetic) ([4]; SND135 10 and 30 μM, glutamate 10 and 30 μM): decreases calcium release

Compound: N[C@@H](CCC(=O)O)C(=O)O [glutamate]
- increase of glucose entry [5]: 20 to 30%
